Laboratory results published in publication PMC12830821 (Communications Biology, 2025).

What was measured:
Assay type in all cases: cell-based
chicken TRPM8 (cTRPM8) = chicken TRPM8 (cTRPM8) (Gallus gallus, UniProt A0AA95FIJ1)
human TRPM8 (hTRPM8) [1] = biological target: T1, human TRPM8 (hTRPM8) (Homo sapiens, UniProt Q7Z2W7)
rat TRPM8 (rTRPM8) [2] = biological target: T2, rat TRPM8 (rTRPM8) (Rattus norvegicus, UniProt Q8R455)
human TRPM8 (hTRPM8) [3] = biological target: T1, human TRPM8 (hTRPM8); assay: calcium imaging
rat TRPM8 (rTRPM8) [4] = biological target: T2, rat TRPM8 (rTRPM8); assay: calcium imaging

T1 sequence (Q7Z2W7 whole entry): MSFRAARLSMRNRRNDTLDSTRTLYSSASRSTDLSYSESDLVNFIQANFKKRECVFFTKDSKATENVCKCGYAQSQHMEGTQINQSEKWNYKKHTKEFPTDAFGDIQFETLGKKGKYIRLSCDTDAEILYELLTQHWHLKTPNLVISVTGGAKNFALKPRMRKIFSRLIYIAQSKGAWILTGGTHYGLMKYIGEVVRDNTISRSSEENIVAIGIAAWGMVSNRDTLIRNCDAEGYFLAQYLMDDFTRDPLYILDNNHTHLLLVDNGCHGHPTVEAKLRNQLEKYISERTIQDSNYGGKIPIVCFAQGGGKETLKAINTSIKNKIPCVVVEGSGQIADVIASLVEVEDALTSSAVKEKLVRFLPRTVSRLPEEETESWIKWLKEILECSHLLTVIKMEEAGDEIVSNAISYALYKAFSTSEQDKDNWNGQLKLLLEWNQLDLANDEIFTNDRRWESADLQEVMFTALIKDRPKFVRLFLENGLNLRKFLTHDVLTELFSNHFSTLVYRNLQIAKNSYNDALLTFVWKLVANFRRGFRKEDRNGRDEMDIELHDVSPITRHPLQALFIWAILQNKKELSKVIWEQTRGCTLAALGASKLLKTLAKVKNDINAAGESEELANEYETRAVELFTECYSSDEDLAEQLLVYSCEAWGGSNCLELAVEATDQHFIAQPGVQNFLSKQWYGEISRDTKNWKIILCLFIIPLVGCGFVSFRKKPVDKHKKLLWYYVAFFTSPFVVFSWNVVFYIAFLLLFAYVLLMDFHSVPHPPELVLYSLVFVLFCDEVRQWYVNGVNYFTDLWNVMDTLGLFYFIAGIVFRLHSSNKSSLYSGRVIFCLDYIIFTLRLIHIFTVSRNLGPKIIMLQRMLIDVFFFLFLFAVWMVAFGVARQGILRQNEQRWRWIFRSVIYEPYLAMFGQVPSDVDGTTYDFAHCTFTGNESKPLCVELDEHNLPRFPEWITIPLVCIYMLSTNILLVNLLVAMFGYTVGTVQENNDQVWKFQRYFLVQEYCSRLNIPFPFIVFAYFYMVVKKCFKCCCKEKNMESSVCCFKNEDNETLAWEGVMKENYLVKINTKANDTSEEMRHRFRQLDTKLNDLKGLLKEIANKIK
T2 sequence (Q8R455 whole entry): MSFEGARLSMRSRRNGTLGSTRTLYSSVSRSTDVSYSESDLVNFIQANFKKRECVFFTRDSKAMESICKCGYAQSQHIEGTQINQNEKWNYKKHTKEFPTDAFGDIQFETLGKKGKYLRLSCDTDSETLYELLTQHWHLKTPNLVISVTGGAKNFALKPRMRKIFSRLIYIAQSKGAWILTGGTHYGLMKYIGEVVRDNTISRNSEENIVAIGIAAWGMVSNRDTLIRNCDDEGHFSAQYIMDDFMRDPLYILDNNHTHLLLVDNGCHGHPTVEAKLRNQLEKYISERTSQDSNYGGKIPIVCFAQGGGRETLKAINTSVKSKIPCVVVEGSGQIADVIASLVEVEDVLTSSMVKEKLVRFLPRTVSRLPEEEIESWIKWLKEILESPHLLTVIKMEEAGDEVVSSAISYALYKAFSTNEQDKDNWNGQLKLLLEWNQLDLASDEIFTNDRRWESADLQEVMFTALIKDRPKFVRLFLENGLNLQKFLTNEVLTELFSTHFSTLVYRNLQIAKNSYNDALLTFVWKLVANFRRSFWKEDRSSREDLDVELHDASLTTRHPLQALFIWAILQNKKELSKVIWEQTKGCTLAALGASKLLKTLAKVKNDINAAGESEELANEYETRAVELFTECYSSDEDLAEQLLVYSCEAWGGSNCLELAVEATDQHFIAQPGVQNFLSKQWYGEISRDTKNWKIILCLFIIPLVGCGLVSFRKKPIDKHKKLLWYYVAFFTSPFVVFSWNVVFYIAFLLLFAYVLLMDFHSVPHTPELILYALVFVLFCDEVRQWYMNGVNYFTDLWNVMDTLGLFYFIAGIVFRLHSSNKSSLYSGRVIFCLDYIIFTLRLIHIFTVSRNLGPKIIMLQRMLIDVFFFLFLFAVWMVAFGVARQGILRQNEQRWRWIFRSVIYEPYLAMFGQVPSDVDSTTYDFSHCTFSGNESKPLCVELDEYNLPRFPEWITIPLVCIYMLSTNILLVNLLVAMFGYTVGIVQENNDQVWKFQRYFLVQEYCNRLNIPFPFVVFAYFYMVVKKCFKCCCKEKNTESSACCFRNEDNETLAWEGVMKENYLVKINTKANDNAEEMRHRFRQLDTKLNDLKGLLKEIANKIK
chicken TRPM8 (cTRPM8), sequence (A0AA95FIJ1 1-1111): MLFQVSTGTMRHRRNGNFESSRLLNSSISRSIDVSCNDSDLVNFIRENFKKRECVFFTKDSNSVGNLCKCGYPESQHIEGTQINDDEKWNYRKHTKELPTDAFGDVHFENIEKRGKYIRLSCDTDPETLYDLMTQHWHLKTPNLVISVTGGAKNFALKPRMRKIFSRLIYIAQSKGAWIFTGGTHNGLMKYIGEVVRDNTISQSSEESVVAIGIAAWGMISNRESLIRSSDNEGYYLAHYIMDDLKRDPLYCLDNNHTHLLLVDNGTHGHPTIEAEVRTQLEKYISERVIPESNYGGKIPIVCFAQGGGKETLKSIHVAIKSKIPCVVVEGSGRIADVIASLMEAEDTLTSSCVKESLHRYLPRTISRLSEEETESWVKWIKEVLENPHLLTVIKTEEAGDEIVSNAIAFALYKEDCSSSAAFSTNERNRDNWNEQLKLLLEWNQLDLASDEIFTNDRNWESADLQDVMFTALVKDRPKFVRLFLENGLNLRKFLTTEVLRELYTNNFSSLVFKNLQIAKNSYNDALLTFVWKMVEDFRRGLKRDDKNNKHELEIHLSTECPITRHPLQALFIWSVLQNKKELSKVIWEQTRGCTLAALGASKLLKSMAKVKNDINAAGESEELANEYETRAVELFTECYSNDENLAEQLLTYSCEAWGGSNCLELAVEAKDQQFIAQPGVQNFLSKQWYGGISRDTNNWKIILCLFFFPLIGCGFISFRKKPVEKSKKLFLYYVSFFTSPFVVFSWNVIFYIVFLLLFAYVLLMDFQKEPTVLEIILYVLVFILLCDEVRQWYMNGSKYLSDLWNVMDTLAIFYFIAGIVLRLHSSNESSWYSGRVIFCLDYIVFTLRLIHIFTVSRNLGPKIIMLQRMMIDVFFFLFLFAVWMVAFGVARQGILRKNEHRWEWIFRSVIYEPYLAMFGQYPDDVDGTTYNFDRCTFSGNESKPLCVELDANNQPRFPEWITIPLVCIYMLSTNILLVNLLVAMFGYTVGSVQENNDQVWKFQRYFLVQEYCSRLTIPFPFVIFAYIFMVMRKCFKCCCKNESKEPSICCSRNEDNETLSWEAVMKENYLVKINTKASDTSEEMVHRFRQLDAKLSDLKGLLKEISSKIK

EC50 (chicken TRPM8 (cTRPM8))	EC50 (human TRPM8 (hTRPM8) [1])	SMILES	EC50 (rat TRPM8 (rTRPM8) [2])	calcium imaging (10 μM) in transfected HEK293T cells (human TRPM8 (hTRPM8) [3])	calcium imaging (10 μM) in transfected HEK293T cells (rat TRPM8 (rTRPM8) [4])
250 nM	2430 nM	CCCCCCCP(=O)(C(C)C)C(C)C [C-1, 1-di(propan-2-yl)phosphorylheptane]	Rat TRPM8 showed intermediate EC50 values		
		O=C1NC(c2cccc([N+](=O)[O-])c2)=CCN1c1ccccc1O [icilin, 1-(2-hydroxyphenyl)-4-(V3-nitrophenyl)-l,2,3,6-tetrahydropyrimidine-2-one]		As expected, icilin activated only the mammalian orthologs	As expected, icilin activated only the mammalian orthologs
